US20260274832A1, “COMPOUNDS AND THEIR USE IN TREATING CANCER” (ASTRAZENECA AB, priority 2023, published 2026)

Columns and labels:
[1] = biological target: T1, AR (AR-full length) in LNCaP cells (Homo sapiens, UniProt P10275, T878A); test: LNCaP Androgen Receptor Imaging Assay (immunofluorescence of endogenous nuclear AR); type: cell-based; settings: 24 h incubation; for DC50: concentration giving 50% of maximum degradation of AR per curve fit, single experiment or average of two or more; for Dmax: LNCaP, maximum degradation observed, normalized as % of positive control (prior art AR PROTAC at 3 μM)
T1 construct: the prostate cancer cell line LNCaP (expressing AR-full length); endogenous in cells; host or cells: LNCaP
Method in brief: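 LNCaP cells (12,000/well) received a 12-point compound dose series (0.3% DMSO) for 24 h at 37° C., then were PFA-fixed and stained for AR (AR441) and nuclei (DRAQ5). Nuclear AR was quantified by imaging, normalized to a 3 μM AR PROTAC control; DC50 and Dmax came from Hill/bell curve fits.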

[2] = biological target: T2, AR (L702H) in LNCaP cells (Homo sapiens, UniProt P10275, L702H/T878A); test: LNCaP Androgen Receptor L702H Imaging Assay (LNCaP cells engineered by CRISPR/Cas9); type: cell-based; settings: LNCaP cells with AR L702H mutation, 24 h incubation; for DC50: concentration giving 50% of maximum degradation of AR (L702H) per curve fit; for Dmax: LNCaP, maximum degradation observed, normalized as % of positive control
T2 construct: engineered to introduce the mutation L702H into the AR gene using CRISPR/Cas9; endogenous in cells; host or cells: LNCaP cells edited by CRISPR/Cas9 at the AR gene
Method in brief: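 CRISPR-engineered LNCaP cells carrying AR L702H were treated 24 h at 37 °C with a 12-point compound dose response (0.3% DMSO), then fixed and immunostained for AR with DRAQ5 nuclear counterstain. Nuclear AR was quantified by imaging, normalized to positive control; DC50 and Dmax came from Hill or bell-shaped fits.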

T1 sequence (P10275 whole entry T878A): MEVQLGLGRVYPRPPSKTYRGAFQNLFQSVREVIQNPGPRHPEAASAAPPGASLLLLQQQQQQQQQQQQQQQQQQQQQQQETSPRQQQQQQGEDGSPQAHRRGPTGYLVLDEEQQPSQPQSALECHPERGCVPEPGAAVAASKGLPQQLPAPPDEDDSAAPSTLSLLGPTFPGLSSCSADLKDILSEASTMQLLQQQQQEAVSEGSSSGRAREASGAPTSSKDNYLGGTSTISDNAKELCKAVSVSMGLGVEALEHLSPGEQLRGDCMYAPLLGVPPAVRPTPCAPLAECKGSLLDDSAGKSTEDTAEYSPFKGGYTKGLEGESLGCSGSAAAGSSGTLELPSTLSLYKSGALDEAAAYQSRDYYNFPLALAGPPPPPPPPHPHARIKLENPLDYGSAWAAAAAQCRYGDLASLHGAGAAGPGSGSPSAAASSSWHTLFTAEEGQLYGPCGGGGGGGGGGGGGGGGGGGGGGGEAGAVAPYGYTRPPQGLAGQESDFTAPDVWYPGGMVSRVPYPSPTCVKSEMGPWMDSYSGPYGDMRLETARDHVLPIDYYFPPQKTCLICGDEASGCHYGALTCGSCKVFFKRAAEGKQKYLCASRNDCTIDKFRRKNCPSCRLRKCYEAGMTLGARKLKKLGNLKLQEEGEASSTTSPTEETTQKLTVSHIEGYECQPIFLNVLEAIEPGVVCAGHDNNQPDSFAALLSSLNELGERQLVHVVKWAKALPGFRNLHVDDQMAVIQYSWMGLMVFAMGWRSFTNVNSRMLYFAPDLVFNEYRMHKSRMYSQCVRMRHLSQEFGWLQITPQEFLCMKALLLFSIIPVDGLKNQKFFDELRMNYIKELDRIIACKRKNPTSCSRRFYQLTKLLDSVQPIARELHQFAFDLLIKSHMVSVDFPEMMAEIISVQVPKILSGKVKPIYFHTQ
T1 sequence (Q96SW2 whole entry partner): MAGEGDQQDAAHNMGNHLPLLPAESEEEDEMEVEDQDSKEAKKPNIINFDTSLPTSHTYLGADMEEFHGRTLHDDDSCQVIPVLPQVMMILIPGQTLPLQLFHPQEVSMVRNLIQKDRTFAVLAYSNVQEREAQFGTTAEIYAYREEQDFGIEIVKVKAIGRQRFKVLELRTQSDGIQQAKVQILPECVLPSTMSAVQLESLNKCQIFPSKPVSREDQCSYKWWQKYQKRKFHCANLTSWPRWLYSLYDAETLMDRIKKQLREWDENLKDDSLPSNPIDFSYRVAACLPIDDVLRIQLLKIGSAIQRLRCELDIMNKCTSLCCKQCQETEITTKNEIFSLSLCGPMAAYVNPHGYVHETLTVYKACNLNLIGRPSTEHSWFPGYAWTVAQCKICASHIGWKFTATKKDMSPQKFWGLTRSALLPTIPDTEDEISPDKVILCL
T2 sequence (P10275 whole entry L702H/T878A): as the sequence (P10275 whole entry T878A) above, with L702H counted along it
T2 sequence (Q96SW2 whole entry partner): as the sequence (Q96SW2 whole entry partner) above

`Cc1ccc(N2CCC(NC(=O)c3ccc(N4CCC(CN5CCN(c6ccc7c(c6)CN(C6CCC(=O)NC6=O)C7=O)CC5)CC4)cn3)CC2)c2[nH]cc(C#N)c12` (centres unmarked) [Example 172, N-[1-(3-Cyano-4-methyl-1H-indol-7-yl)piperidin-4-yl]-5-[4-({4-[2-(2,6-dioxopiperidin-3-yl)-1-oxo-2,3-dihydro-1H-isoindol-5-yl]piperazin-1-yl}methyl)piperidin-1-yl]pyridine-2-carboxamide] showed a DC50 [1] of 1 nM, a Dmax [1] of 94% and a DC50 [2] of 4 nM. The Dmax [2] was 94%.

With `N#Cc1c[nH]c2c(N3CCC(NC(=O)c4ccc(N5CCC(CN6CCC(n7ccc8c(N9CCC(=O)NC9=O)cccc87)CC6)CC5)cc4)CC3)ccc(Cl)c12` [Example 173, N-[1-(4-Chloro-3-cyano-1H-indol-7-yl)piperidin-4-yl]-4-[4-({4-[4-(2,4-dioxo-1,3-diazinan-1-yl)-1H-indol-1-yl]piperidin-1-yl}methyl)piperidin-1-yl]benzamide] the DC50 [1] was 1 nM, the Dmax [1] was 102% and the DC50 [2] was 2 nM. It also gave a Dmax [2] of 109%.

Work on `N#Cc1c[nH]c2c(C3CCC(NC(=O)c4ccc(N5CCC(CN6CCC(n7ccc8c(N9CCC(=O)NC9=O)cccc87)CC6)CC5)cc4F)CC3)ccc(Cl)c12` (centres unmarked) [Example 174, N-[4-(4-Chloro-3-cyano-1H-indol-7-yl)cyclohexyl]-4-[4-({4-[4-(2,4-dioxo-1,3-diazinan-1-yl)-1H-indol-1-yl]piperidin-1-yl}methyl)piperidin-1-yl]-2-fluorobenzamide] yielded a DC50 [1] of 3 nM, a Dmax [1] of 106% and a DC50 [2] of 13 nM. The Dmax [2] was 104%.

Work on `N#Cc1c[nH]c2c(N3CCC(NC(=O)c4c(F)cc(N5CCC(CN6CCC(n7ccc8c(N9CCC(=O)NC9=O)cccc87)CC6)CC5)cc4F)CC3)ccc(Cl)c12` [Example 175, N-[1-(4-Chloro-3-cyano-1H-indol-7-yl)piperidin-4-yl]-4-[4-({4-[4-(2,4-dioxo-1,3-diazinan-1-yl)-1H-indol-1-yl]piperidin-1-yl}methyl)piperidin-1-yl]-2,6-difluorobenzamide] yielded a DC50 [1] of 1 nM, a Dmax [1] of 107% and a DC50 [2] of 1 nM. For the same compound, the Dmax [2] was 109%.

Work on `N#Cc1c[nH]c2c(N3CCC(NC(=O)c4cnc(N5CCC(CN6CCC(n7ccc8c(N9CCC(=O)NC9=O)cccc87)CC6)CC5)cn4)CC3)ccc(Cl)c12` [Example 176, N-[1-(4-Chloro-3-cyano-1H-indol-7-yl)piperidin-4-yl]-5-[4-({4-[4-(2,4-dioxo-1,3-diazinan-1-yl)-1H-indol-1-yl]piperidin-1-yl}methyl)piperidin-1-yl]pyrazine-2-carb oxamide] yielded a DC50 [1] of 1 nM, a Dmax [1] of 104% and a DC50 [2] of 3 nM. The Dmax [2] was 102%.

Work on `N#Cc1c[nH]c2c(N3CCC(NC(=O)c4ncc(N5CCC(CN6CCC(n7ccc8c(N9CCC(=O)NC9=O)cccc87)CC6)CC5)cn4)CC3)ccc(Cl)c12` [Example 177, N-[1-(4-Chloro-3-cyano-1H-indol-7-yl)piperidin-4-yl]-5-[4-({4-[4-(2,4-dioxo-1,3-diazinan-1-yl)-1H-indol-1-yl]piperidin-1-yl}methyl)piperidin-1-yl]pyrimidine-2-carboxamide] yielded a DC50 [1] of 2 nM, a Dmax [1] of 107% and a DC50 [2] of 15 nM. It also gave a Dmax [2] of 40%.

In the case of `Cc1cc(N2CCC(CN3CCC(n4ccc5c(N6CCC(=O)NC6=O)cccc54)CC3)CC2)ccc1C(=O)NC1CCN(c2ccc(Cl)c3c(C#N)c[nH]c23)CC1` [Example 178, N-[1-(4-Chloro-3-cyano-1H-indol-7-yl)piperidin-4-yl]-4-[4-({4-[4-(2,4-dioxo-1,3-diazinan-1-yl)-1H-indol-1-yl]piperidin-1-yl}methyl)piperidin-1-yl]-2-methylbenzamide], the DC50 [1] is reported as 2 nM, the Dmax [1] is reported as 106% and the DC50 [2] is reported as 2 nM. For the same compound, the Dmax [2] was 107%.

`N#Cc1c[nH]c2c(N3CCC(NC(=O)c4ccc(N5CCC(CN6CCC(n7ccc8c(N9CCC(=O)NC9=O)cccc87)CC6)CC5)nn4)CC3)ccc(Cl)c12` [Example 179, N-[1-(4-Chloro-3-cyano-1H-indol-7-yl)piperidin-4-yl]-6-[4-({4-[4-(2,4-dioxo-1,3-diazinan-1-yl)-1H-indol-1-yl]piperidin-1-yl}methyl)piperidin-1-yl]pyridazine-3-carboxamide] was tested, and the DC50 [1] was 1 nM, the Dmax [1] was 103% and the DC50 [2] was 1 nM. For the same compound, the Dmax [2] was 108%.
